Measurements as given in ChEMBL document CHEMBL5291721, “A preclinical secondary pharmacology resource illuminates target-adverse drug reaction associations of marketed drugs” (Nat Commun, 2023).

Experiments:
[1] = target: T1, Alpha-1A adrenergic receptor (Homo sapiens, UniProt P35348)
T1 sequence (P35348 whole entry): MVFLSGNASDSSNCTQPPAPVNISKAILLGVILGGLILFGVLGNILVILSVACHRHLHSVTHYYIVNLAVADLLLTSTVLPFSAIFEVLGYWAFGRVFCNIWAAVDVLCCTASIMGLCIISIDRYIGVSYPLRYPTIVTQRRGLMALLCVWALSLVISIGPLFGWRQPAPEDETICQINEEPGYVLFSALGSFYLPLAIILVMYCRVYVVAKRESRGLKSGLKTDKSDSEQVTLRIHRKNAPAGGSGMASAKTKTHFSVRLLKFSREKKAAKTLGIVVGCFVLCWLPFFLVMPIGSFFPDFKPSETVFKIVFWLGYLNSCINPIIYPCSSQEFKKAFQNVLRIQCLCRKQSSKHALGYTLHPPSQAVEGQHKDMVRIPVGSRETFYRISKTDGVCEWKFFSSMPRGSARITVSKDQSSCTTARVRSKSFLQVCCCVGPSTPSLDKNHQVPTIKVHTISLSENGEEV

[2] = target: T2, Alpha-2A adrenergic receptor (Homo sapiens, UniProt P08913); format: functional, cell-based
T2 sequence (P08913 whole entry): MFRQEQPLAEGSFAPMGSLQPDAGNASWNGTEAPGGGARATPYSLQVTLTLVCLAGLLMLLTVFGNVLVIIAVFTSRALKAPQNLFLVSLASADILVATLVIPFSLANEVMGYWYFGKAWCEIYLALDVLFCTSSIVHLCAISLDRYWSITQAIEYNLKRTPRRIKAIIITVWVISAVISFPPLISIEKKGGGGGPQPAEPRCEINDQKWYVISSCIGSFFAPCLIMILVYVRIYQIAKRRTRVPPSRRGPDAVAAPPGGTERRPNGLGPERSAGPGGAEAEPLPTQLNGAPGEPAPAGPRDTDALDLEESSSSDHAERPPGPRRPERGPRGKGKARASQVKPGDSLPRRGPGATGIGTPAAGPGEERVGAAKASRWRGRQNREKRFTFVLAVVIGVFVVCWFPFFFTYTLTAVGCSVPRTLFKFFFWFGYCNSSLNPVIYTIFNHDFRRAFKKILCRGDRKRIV

[3] = target: T3, Type-1 angiotensin II receptor (Homo sapiens, UniProt P30556)
T3 sequence (P30556 whole entry): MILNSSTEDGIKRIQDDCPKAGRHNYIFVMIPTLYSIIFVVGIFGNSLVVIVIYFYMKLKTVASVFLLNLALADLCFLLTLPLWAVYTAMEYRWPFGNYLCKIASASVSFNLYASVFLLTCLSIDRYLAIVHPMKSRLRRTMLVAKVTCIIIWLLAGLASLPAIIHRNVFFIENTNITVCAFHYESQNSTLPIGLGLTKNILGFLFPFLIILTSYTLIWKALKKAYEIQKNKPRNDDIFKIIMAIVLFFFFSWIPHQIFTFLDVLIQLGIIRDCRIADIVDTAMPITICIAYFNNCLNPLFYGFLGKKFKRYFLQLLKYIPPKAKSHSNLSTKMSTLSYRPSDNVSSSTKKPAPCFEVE

[4] = target: T4, Muscarinic acetylcholine receptor M2 (Homo sapiens, UniProt P08172); format: functional, cell-based
T4 sequence (P08172 whole entry): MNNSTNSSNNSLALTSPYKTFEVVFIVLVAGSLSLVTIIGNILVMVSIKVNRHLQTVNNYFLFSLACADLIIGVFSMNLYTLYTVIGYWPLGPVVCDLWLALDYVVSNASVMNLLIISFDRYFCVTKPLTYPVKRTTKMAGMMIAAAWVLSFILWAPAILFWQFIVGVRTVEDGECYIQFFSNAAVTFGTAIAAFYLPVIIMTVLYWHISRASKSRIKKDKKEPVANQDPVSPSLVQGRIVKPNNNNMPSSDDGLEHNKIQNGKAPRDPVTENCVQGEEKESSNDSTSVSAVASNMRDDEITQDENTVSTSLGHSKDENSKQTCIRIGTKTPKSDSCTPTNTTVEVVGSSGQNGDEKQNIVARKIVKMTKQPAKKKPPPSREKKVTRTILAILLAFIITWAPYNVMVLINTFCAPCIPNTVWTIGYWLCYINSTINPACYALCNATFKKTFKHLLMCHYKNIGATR

[5] = target: Neuronal acetylcholine receptor subunit alpha-4 (Homo sapiens, UniProt P43681)
[6] = target: Gamma-aminobutyric acid receptor subunit alpha-1 (Rattus norvegicus, UniProt P62813); format: functional
[7] = target: Growth hormone secretagogue receptor type 1 (Homo sapiens, UniProt Q92847)
Histamine H1 receptor = Histamine H1 receptor (Homo sapiens, UniProt P35367)
[8] = target: 5-hydroxytryptamine receptor 2A (Homo sapiens, UniProt P28223); format: functional, cell-based
[9] = target: T5, 5-hydroxytryptamine receptor 3A (Homo sapiens, UniProt P46098); format: functional
T5 sequence (P46098 whole entry): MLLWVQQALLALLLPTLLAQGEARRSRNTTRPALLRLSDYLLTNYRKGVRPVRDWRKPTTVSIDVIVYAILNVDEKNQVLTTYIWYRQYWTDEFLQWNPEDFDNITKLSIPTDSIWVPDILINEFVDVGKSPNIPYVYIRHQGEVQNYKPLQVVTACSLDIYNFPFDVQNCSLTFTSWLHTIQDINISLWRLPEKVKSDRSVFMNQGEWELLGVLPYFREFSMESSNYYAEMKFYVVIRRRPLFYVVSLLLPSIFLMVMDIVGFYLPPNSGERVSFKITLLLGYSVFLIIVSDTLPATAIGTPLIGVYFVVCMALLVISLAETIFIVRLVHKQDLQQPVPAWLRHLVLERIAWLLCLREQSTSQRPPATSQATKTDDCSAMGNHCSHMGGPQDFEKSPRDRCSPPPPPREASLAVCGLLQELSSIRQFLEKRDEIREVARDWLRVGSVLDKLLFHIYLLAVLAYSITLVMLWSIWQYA

Melanocortin receptor 4 = Melanocortin receptor 4 (Homo sapiens, UniProt P32245)
[10] = target: Sodium-dependent dopamine transporter (Homo sapiens, UniProt Q01959)
[11] = target: Sodium-dependent noradrenaline transporter (Homo sapiens, UniProt P23975)
[12] = target: Sodium-dependent serotonin transporter (Homo sapiens, UniProt P31645)
[13] = target: Delta-type opioid receptor (Homo sapiens, UniProt P41143)
Also: assay procedure not described here.

Sequence of Neuronal acetylcholine receptor subunit alpha-4 (P43681 whole entry): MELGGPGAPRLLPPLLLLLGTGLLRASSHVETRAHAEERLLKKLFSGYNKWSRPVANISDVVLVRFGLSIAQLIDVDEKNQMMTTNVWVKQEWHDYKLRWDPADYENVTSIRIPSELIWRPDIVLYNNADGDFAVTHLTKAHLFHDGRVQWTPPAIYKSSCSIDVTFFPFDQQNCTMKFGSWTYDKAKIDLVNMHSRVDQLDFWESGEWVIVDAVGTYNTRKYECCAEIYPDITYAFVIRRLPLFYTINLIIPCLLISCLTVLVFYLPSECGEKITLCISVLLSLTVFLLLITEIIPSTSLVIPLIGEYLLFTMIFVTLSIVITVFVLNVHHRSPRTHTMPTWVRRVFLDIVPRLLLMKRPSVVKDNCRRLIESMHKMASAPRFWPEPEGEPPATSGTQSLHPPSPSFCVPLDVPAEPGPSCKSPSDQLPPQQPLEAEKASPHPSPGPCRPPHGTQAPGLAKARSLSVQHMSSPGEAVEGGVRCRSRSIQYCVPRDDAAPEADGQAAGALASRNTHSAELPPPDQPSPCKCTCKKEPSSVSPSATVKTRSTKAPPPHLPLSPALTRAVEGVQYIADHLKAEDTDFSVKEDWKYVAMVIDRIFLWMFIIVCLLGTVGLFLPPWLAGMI
Sequence of Gamma-aminobutyric acid receptor subunit alpha-1 (P62813 whole entry): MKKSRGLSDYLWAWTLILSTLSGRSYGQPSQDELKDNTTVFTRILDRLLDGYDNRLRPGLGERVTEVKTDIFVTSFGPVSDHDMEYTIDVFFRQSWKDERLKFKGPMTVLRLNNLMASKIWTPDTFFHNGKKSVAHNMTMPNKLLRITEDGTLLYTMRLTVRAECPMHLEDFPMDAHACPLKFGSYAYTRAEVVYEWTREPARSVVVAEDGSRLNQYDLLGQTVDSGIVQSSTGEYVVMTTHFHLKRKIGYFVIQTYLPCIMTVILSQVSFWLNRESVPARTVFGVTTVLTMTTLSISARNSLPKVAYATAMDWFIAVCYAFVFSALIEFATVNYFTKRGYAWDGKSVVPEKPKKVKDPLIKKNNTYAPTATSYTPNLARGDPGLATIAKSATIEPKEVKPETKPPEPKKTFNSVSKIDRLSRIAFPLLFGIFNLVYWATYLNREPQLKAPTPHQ
Sequence of Growth hormone secretagogue receptor type 1 (Q92847 whole entry): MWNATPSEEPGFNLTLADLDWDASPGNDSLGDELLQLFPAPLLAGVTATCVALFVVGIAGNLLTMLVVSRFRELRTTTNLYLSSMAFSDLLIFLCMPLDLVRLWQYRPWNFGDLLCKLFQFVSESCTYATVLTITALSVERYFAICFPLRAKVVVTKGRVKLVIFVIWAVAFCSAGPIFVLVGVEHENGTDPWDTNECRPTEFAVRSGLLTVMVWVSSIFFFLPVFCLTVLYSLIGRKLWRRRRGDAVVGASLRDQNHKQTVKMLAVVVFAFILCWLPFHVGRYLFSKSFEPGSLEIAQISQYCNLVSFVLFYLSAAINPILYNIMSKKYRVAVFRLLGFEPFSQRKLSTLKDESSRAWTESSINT
Sequence of Delta-type opioid receptor (P41143 whole entry): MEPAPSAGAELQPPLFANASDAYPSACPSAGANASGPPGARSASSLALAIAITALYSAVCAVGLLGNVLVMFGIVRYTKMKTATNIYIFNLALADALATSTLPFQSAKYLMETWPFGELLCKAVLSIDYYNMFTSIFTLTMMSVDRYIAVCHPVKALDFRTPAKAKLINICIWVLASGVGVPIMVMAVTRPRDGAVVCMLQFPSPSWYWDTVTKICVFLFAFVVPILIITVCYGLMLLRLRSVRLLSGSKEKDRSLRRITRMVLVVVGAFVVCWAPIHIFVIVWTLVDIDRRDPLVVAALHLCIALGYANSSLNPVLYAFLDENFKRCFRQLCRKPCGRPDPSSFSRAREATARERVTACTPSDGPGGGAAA
Sequence of 5-hydroxytryptamine receptor 2A (P28223 whole entry): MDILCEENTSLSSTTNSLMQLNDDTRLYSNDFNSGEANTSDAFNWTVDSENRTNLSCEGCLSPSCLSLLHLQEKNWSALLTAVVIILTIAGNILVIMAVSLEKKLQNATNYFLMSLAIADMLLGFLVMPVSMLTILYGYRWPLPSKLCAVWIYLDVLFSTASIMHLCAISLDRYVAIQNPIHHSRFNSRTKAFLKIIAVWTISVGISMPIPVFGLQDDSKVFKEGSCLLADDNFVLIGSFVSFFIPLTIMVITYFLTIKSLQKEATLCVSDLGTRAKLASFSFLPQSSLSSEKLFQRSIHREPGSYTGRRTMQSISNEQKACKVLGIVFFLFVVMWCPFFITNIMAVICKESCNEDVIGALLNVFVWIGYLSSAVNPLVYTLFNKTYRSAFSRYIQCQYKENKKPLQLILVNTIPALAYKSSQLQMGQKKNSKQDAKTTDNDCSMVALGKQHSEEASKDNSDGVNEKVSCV
Sequence of Melanocortin receptor 4 (P32245 whole entry): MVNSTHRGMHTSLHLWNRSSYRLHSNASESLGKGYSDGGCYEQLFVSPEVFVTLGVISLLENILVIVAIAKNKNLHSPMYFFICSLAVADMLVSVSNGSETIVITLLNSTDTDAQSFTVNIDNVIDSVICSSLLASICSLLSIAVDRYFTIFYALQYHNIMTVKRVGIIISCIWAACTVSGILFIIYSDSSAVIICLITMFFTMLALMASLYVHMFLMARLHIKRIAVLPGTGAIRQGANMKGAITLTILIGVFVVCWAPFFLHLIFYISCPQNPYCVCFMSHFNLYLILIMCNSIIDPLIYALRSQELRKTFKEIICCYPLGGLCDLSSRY
Sequence of Sodium-dependent serotonin transporter (P31645 whole entry): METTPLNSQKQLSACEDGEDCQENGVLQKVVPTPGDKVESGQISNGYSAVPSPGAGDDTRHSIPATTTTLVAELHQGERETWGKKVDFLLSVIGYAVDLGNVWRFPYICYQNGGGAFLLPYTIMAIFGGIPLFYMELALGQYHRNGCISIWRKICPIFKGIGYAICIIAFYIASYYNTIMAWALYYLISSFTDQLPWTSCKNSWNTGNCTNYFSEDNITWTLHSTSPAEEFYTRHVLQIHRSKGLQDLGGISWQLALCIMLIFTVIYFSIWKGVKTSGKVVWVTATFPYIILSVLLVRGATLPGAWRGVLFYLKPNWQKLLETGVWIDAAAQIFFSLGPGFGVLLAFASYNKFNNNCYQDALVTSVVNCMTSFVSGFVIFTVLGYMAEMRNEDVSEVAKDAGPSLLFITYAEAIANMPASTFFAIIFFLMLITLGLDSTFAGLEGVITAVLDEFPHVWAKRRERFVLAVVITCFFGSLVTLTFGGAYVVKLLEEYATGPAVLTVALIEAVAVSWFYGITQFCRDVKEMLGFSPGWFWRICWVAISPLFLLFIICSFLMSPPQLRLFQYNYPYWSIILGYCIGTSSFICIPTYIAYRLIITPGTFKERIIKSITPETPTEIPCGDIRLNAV
Sequence of Sodium-dependent noradrenaline transporter (P23975 whole entry): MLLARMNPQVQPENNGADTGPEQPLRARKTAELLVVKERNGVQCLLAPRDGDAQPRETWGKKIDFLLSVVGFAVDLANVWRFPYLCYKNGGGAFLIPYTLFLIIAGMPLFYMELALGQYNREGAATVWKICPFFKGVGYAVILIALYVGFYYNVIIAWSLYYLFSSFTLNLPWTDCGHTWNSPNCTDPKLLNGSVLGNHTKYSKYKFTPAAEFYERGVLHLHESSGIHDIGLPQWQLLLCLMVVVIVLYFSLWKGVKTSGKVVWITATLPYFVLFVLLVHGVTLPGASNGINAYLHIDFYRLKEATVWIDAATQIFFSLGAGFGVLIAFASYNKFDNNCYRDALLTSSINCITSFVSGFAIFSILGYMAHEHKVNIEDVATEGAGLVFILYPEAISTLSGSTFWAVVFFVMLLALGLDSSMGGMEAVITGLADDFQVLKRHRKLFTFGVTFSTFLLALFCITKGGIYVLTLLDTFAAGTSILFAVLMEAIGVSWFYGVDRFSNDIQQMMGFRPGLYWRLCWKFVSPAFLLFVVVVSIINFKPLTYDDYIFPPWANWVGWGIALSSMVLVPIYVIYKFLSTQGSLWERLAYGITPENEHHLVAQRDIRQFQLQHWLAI
Sequence of Sodium-dependent dopamine transporter (Q01959 whole entry): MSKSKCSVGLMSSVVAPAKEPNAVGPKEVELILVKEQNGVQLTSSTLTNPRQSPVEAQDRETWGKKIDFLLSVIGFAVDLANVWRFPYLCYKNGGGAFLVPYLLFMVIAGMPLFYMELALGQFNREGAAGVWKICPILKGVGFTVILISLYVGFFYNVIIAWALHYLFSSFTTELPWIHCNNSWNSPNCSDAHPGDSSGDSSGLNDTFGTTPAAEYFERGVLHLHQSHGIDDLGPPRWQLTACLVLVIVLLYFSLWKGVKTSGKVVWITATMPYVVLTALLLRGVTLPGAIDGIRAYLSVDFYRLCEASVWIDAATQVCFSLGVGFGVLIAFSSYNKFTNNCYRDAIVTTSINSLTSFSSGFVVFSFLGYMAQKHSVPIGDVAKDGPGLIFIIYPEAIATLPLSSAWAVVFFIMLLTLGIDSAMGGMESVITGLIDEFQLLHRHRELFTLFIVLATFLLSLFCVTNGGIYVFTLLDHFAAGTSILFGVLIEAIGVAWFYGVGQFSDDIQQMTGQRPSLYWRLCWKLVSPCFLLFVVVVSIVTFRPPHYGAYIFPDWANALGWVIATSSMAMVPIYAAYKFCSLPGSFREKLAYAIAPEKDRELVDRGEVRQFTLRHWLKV
Sequence of Histamine H1 receptor (P35367 whole entry): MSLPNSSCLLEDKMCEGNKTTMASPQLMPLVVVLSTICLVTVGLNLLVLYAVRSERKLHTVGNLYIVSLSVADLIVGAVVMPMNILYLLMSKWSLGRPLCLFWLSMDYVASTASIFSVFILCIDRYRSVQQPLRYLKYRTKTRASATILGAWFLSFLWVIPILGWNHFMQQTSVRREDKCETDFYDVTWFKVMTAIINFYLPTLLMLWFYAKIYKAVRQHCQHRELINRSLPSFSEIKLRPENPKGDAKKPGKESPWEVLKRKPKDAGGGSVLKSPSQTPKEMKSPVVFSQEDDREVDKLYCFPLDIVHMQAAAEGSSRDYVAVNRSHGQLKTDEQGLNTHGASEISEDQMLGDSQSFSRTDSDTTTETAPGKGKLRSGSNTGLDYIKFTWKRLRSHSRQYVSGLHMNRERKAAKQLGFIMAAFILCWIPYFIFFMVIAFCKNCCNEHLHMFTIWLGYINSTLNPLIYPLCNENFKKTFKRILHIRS

Row | Compound | AC50 [1] [µM] | AC50 [2] [µM] | AC50 [3] [µM] | AC50 [4] [µM] | AC50 [5] [µM] | AC50 [6] [µM] | AC50 [7] [µM] | AC50 (Histamine H1 receptor) [µM] | AC50 [8] [µM] | AC50 [9] [µM] | AC50 (Melanocortin receptor 4) [µM] | AC50 [10] [µM] | AC50 [11] [µM] | AC50 [12] [µM] | AC50 [13] [µM]
1 | COc1ccc2c3c1O[C@H]1C(=O)CC[C@H]4[C@@H](C2)N(C)CC[C@]314 [HYDROCODONE] | > 10 | > 10 | > 30 | > 10 | > 10 | > 10 | > 30 | > 10 | > 30 | > 30 | > 30 | > 10 | > 10 | > 10 | –
2 | CCOC(=O)O[C@]1(C(=O)COC(=O)CC)CC[C@H]2[C@@H]3CCC4=CC(=O)C=C[C@]4(C)[C@H]3[C@@H](O)C[C@@]21C [PREDNICARBATE] | > 10 | > 10 | > 10 | > 10 | > 10 | > 10 | > 10 | > 10 | > 10 | > 30 | > 10 | > 10 | > 10 | > 10 | > 30
3 | CC1NCCOC1c1ccccc1 (configuration not stated) [PHENMETRAZINE] | > 10 | > 10 | > 30 | > 10 | > 10 | > 10 | > 30 | > 10 | > 30 | > 30 | > 30 | 25.6 | 11.4 | > 30 | > 30
4 | COc1ccc(C(Cl)=C(c2ccc(OC)cc2)c2ccc(OC)cc2)cc1 [CHLOROTRIANISENE] | > 10 | > 30 | > 30 | > 30 | > 30 | > 30 | > 30 | > 30 | > 30 | > 30 | > 10 | > 30 | > 30 | > 30 | > 30
5 | C[C@@H](Cc1ccccc1)N(C)Cc1ccccc1 [BENZPHETAMINE] | 6.96 | > 10 | > 30 | > 10 | > 10 | > 10 | > 10 | > 10 | > 10 | > 30 | > 10 | 9.9 | 0.036 | 0.075 | > 30
6 | CC(C)(N)Cc1ccccc1 [PHENTERMINE] | > 10 | > 10 | > 30 | > 10 | > 10 | > 10 | > 30 | > 10 | > 30 | > 30 | > 30 | > 30 | 5.73 | > 30 | > 30
7 | CCN(CC)CCCN(c1ccccc1)C1Cc2ccccc2C1 [APRINDINE] | 1.3 | > 30 | > 30 | > 30 | > 30 | > 30 | 15 | 1.18 | > 30 | > 30 | > 10 | 11.6 | 2.3 | 3.3 | > 30
8 | COC(=O)[C@H]1[C@H]2C[C@@H]3c4[nH]c5ccccc5c4CCN3C[C@H]2C[C@@H](OC(=O)c2cc(OC)c(OC)c(OC)c2)[C@@H]1OC [DESERPIDINE] | > 10 | > 10 | > 10 | > 10 | > 30 | > 10 | 24.6 | > 10 | > 10 | > 30 | 8.6 | > 10 | > 10 | > 10 | > 30
9 | CCC(=O)[C@@]1(C)[C@H](C)C[C@H]2[C@@H]3CCC4=CC(=O)C=C[C@]4(C)[C@H]3[C@@H](O)C[C@@]21C [RIMEXOLONE] | > 10 | > 10 | > 10 | > 10 | > 10 | > 10 | > 10 | > 10 | > 10 | > 30 | > 10 | > 10 | > 10 | > 10 | > 30
10 | OCC(CO)N[C@H]1C[C@](O)(CO)[C@@H](O)[C@H](O)[C@H]1O [VOGLIBOSE] | > 30 | > 30 | > 30 | > 30 | > 30 | > 30 | > 30 | > 30 | > 30 | > 30 | > 30 | > 30 | > 30 | > 30 | > 30
11 | CC(C(=O)O)c1ccc(C(=O)c2ccccc2)s1 (configuration not stated) [TIAPROFENIC ACID] | 10 | > 10 | > 10 | > 10 | > 10 | > 30 | > 10 | – | > 30 | > 30 | > 10 | > 10 | > 10 | > 10 | > 30
12 | CCN(CC)C(C)C(=O)c1ccccc1 (configuration not stated) [DIETHYLPROPION] | > 10 | > 10 | > 30 | > 10 | > 10 | > 10 | > 30 | 12 | – | > 30 | > 30 | > 30 | > 30 | > 30 | > 30
